Columns and labels:
[1] = test system: brown patch, caused by Rhozoctonia sofani; assay: Antifungal treatment on turf grass plots (Example 84), brown patch; type: in vivo; details: 17.8 g/1000 sq. ft. (Daconil Ultrex 3.2 oz./1000 sq. ft.)
Experimental: (§1) Plots of creeping bentgrass, cv. “Pennlinks,” were treated with water based sprays of the test compounds. Sprays were delivered by CO2-charged sprayer to deliver the equivalent of 2 gallons of spray per 1000 sq. ft of plot area. Plots were 15 sq. ft. each, and treatments were mixed to apply material to 75 sq. ft (5 replicates), although only 4 replicates were treated. The quaternary salts of triterpenes were applied at 17.8 g/1000 sq. ft. for 14 days. Daconil Ultrex® was applied at 3.2 oz./1000 sq. ft. for 14 days. The experiment used a randomized complete block design, with 4 replicates per treatment. Disease pressure was high. Pennlinks […] is moderately to highly susceptible to both dollar spot and brown patch. For brown patch, caused by Rhozoctonia sofani. a visual estimate of the percent of the plot area affected was recorded. Turf quality was estimated on a 1 to 9 scale, with 1 being worst and 9 being perfect. A rating of 6 is considered acceptable.

[2] = Antifungal treatment on turf grass plots (Example 84), turf quality; type: in vivo, creeping bentgrass, cv. Pennlinks; details: 1 to 9 scale, 9 perfect, 17.8 g/1000 sq. ft. (Daconil Ultrex 3.2 oz./1000 sq. ft.)
Experimental: as §1

[3] = test system: dollar spot; assay: Antifungal treatment on turf grass plots (Example 84), dollar spot count; type: in vivo; details: 17.8 g/1000 sq. ft. (Daconil Ultrex 3.2 oz./1000 sq. ft.)
Experimental: as §1

[4] = test system: dollar spot fungus (Agrostis stolonifera); assay: Turf plot trial at Clemson University (Example 85), area affected by dollar spot; type: in vivo; details: 50 grams active ingredient per 1000 square feet
Experimental: (§2) Plots of creeping bentgrass, cv. “Pennlinks,” were treated with water based sprays of the test compounds. Sprays were delivered by CO2-charged sprayer to deliver the equivalent of 2 gallons of spray per 1000 sq. ft of plot area. Plots were 15 sq. ft. each, and treatments were mixed to apply material to 75 sq. ft (5 replicates), although only 4 replicates were treated. […] Daconil Ultrex® was applied at 3.2 oz./1000 sq. ft. for 14 days. The experiment used a randomized complete block design, with 4 replicates per treatment. Disease pressure was high. Pennlinks […] is moderately to highly susceptible to both dollar spot and brown patch. For brown patch, caused by Rhozoctonia sofani. a visual estimate of the percent of the plot area affected was recorded. Turf quality was estimated on a 1 to 9 scale, with 1 being worst and 9 being perfect. A rating of 6 is considered acceptable.
(§3) Plots of creeping bentgrass, cv. Pennlinks, were treated with water-based sprays as in Example 84 at Clemson University. Treatment application dates were May 7. May 14, May 28, and June 11. Plots were rated visually, estimating the percent of the area affected by dollar spot fungus […]. Turf quality was rated on a 1 to 9 scale, with 9 being perfect turf, as in Example 84. Disease pressure was moderately high to high when the trial was initiated, with existing dollar spot present.

[5] = Turf plot trial at Clemson University (Example 85), turf quality; type: in vivo, creeping bentgrass, cv. Pennlinks; details: 1 to 9 scale, 50 grams active ingredient per 1000 square feet
Experimental: as §2, §3

[6] = Table 2 experiment, Jul. 2, 2001
[7] = Table 2 experiment, Jul. 9, 2001
[8] = Table 2 experiment, Jul. 16, 2001
[9] = Table 2 experiment, Jun. 25, 2001
[10] = Table 3 experiment, Jul. 2, 2001
[11] = Table 3 experiment, Jul. 9, 2001
[12] = Table 3 experiment, Jul. 16, 2001
[13] = Table 3 experiment, Jun. 25, 2001

Row | Structure (SMILES) | Brown Patch % of plot infected [1, 6] | Brown Patch % of plot infected [1, 7] | Brown Patch % of plot infected [1, 8] | Brown Patch % of plot infected [1, 9] | Brown Patch % of plot infected [1, 10] | Brown Patch % of plot infected [1, 11] | Brown Patch % of plot infected [1, 12] | Brown Patch % of plot infected [1, 13] | Turf quality [2, 6] | Turf quality [2, 7] | Turf quality [2, 8] | Turf quality [2, 9] | Turf quality [2, 10] | Turf quality [2, 11] | Turf quality [2, 13] | Dollar Spot # of spots per plot [3, 6] | Dollar Spot # of spots per plot [3, 8] | Dollar Spot # of spots per plot [3, 9] | Dollar Spot # of spots per plot [3, 10] | Dollar Spot # of spots per plot [3, 11] | other results
1 | C=C(C)[C@@H]1CC[C@]2(COC(=O)C[n+]3ccccc3)CC[C@]3(C)C(CCC4[C@@]5(C)CC[C@H](OC(=O)C[n+]6ccccc6)C(C)(C)C5CC[C@]43C)C12.[Cl-].[Cl-] (some centres unmarked) [Compound 1, Lup-20(29)-ene3,28-bis-(N-pyridiniumacetate) dichloride] | 35.0% | 13.8% | 3.8% | 18.8% | 24.0% | 20.5% | 8.6% | 15.8% | 4.50 | 6.00 | 5.57 | 4.50 | 4.50 | 5.38 | 4.88 | 22.3 spots per plot | 2.8 spots per plot | 21.0 spots per plot | suppressed dollar spot | 13.0 spots per plot | Dollar Spot # of spots per plot ([3]; Table 3 experiment, Jul. 2, 2001, listed as Comp. 1): 15.8 spots per plot; Dollar Spot # of spots per plot [3, 12]: 1.5 spots per plot; Dollar Spot # of spots per plot [3, 13]: 11.5 spots per plot
2 | C=C(C)[C@@H]1CC[C@]2(COC(=O)C[N+](C)(C)CCN(C)C)CC[C@]3(C)C(CCC4[C@@]5(C)CC[C@H](OC(=O)C[N+](C)(C)CCN(C)C)C(C)(C)C5CC[C@]43C)C12.[Cl-].[Cl-] (some centres unmarked) [Compound 7, Lup-20(29)-ene-3,28-bis[(tetramethylethylenediamine-N-yl)acetate] dichloride] | 20.5% | 20.0% | 3.8% | 24.5% | 25.5% | significantly suppress brown patch | 8.8% | 17.5% | 4.25 | 4.50 | 5.60 | 4.50 | 4.50 | 5.88 | 4.36 | 22.3 spots per plot | 2.3 spots per plot | 18.3 spots per plot | 21.5 spots per plot | 14.5 spots per plot | Brown Patch % of plot infected ([1]; Table 3 experiment, Jul. 9, 2001, listed as Comp. 7): 10.8%; Dollar Spot # of spots per plot [3, 12]: 2.0 spots per plot; Dollar Spot # of spots per plot [3, 13]: 14.8 spots per plot
3 | C=C(C)[C@@H]1CC[C@]2(COC(=O)CC[n+]3ccccc3)CC[C@]3(C)C(CCC4[C@@]5(C)CC[C@H](OC(=O)CC[n+]6ccccc6)C(C)(C)C5CC[C@]43C)C12.[Cl-].[Cl-] (some centres unmarked) [Compound 14, Lup-20 (29)-ene-3,28-bis (N-pyridinium-3-propionate) dichloride] | 36.8% | 25.0% | 5.0% | 25.8% | 31.3% | 16.5% | 7.5% | 16.3% | 4.25 | 4.63 | 5.60 | 4.38 | 4.75 | 5.00 | 4.88 | 21.8 spots per plot | 3.5 spots per plot | 22.3 spots per plot | 20.8 spots per plot | 14.5 spots per plot | Dollar Spot # of spots per plot [3, 12]: 2.8 spots per plot; Dollar Spot # of spots per plot [3, 13]: 16.3 spots per plot
4 | C=C(C)[C@@H]1CC[C@]2(COC(=O)C[n+]3ccc(N(C)C)cc3)CC[C@]3(C)C(CCC4[C@@]5(C)CC[C@H](OC(=O)C[n+]6ccc(N(C)C)cc6)C(C)(C)C5CC[C@]43C)C12.[Cl-].[Cl-] (some centres unmarked) [Compound 46, Lup-20(29)-ene-3,28-bis[N-(4-dimethylaminopyridinium)acetate] dichloride] | – | – | – | – | – | – | – | – | – | – | – | – | – | – | – | – | – | – | – | – | % of area infected ([4]; Table 5 c2, Jun. 3, 2002): 23.5 a %; % of area infected ([4]; Table 5 c4, Jun. 3, 2002): 24.0 a %; % of area infected ([4]; Table 6, May 8, 2002): 30.5 a %; % of area infected ([4]; Table 6, May 13, 2002): 28.0 a %; % of area infected ([4]; Table 6, May 20, 2002): 25.0 bc %; % of area infected ([4]; Table 6, May 27, 2002): 26.8 bcd %; Turf quality ([5]; Table 5, Jun. 3, 2002): 5.40 ab; Turf quality ([5]; Table 5, Jun. 17, 2002): 4.52 ab; Turf quality ([5]; Table 5, May 27, 2002): 4.00 ab; Turf quality ([5]; Table 6, May 8, 2002): 3.25 a; Turf quality ([5]; Table 6, May 13, 2002): 3.38 a; Turf quality ([5]; Table 6, May 20, 2002): 3.50 a
5 | C=C(C)[C@@H]1CC[C@]2(CO)CC[C@]3(C)C(CCC4[C@@]5(C)CC[C@H](OC(=O)C[N+](C)(C)CCCCCCCCCCCCCC)C(C)(C)C5CC[C@]43C)C12.[Cl-] (some centres unmarked) [Compound 56] | – | – | – | – | – | – | – | – | – | – | – | – | – | – | – | – | – | – | – | – | % of area infected ([4]; Table 5 c2, Jun. 3, 2002): 22.0 a %; % of area infected ([4]; Table 5 c4, Jun. 3, 2002): 19.3 ab %; % of area infected ([4]; Table 6, May 8, 2002): 31.0 a %; % of area infected ([4]; Table 6, May 13, 2002): 26.5 a %; % of area infected ([4]; Table 6, May 20, 2002): 32.0 bc %; % of area infected ([4]; Table 6, May 27, 2002): 21.8 cd %; Turf quality ([5]; Table 5, Jun. 3, 2002): 5.30 ab; Turf quality ([5]; Table 5, Jun. 17, 2002): 5.38 ab; Turf quality ([5]; Table 5, May 27, 2002): 4.47 ab; Turf quality ([5]; Table 6, May 8, 2002): 3.13 a; Turf quality ([5]; Table 6, May 13, 2002): 3.00 a; Turf quality ([5]; Table 6, May 20, 2002): 3.03 ab

Source: patent US7199114B2, “Triterpene quaternary salts as biologically active surfactants” (The Regents of the University of Minnesota, priority 2002, dated 2007)
